Test results as given in patent publication US11117868B2, “Edaravone salt” (Treeway TW001 B.V., priority 2017, dated 2021).
Converted amounts (≈) assume the structure as drawn. “And” between values parts separate entries of the source, which are not always exact repeats. Equal entries are not always repeated. Each block holds one molecule with its values, some of them ahead of it.

Assays:
[1] = Intrinsic dissolution rate in water; assay type: physicochemical
Procedure: The intrinsic dissolution rate in water of the edaravone salt was 0.37 mg/min/cm^2, whereas the dissolution rate of the freebase was 0.22 mg/min/cm^2.

[2] = Solubility in water after 7 hours equilibration; assay type: physicochemical
[3] = Hygroscopicity / conversion of polymorph through absorption of water; assay type: physicochemical
[4] = Storage stability at controlled temperature and relative humidity
[5] = cited from earlier work

Molecule: 3-methyl-1-phenyl-2-pyrazolin-5-one hemi-napadisylate monohydrate [Example 1]
intrinsic dissolution rate in water [1]: 0.37 mg/min/cm^2 | solubility in water ([2]; monohydrate): 2800 µg/mL and 3200 µg/mL | hygroscopicity [3]: non-hygroscopic | stability (in words) [4]: very stable | degradation on storage ([4]; kept for 28 days at 40° C. and 75% RH): without showing significant degradation

relative humidity at which it is converted into polymorph B through absorption of water ([3]; conversion into polymorph B): > 50 % RH
Molecule: CC1=NN(c2ccccc2)C(=O)C1.CC1=NN(c2ccccc2)C(=O)C1.O.O=S(=O)(O)c1cccc2c(S(=O)(=O)O)cccc12 [Example 3, 3-methyl-1-phenyl-2-pyrazolin-5-one hemi-napadisylate hemihydrate]

hygroscopicity [3]: non-hygroscopic
Molecule: CC1=NN(c2ccccc2)C(=O)C1.CC1=NN(c2ccccc2)C(=O)C1.O.O.O=S(=O)(O)c1cccc2c(S(=O)(=O)O)cccc12 [Example 4, 3-methyl-1-phenyl-2-pyrazolin-5-one hemi-napadisylate monohydrate]

intrinsic dissolution rate in water [1]: 0.22 mg/min/cm^2 | solubility at 7 h ([2]; thermodynamic from solid): 2000 to 3000 µg/mL (≈ 11.5 to 17.2 mM)
Molecule: CC1=NN(c2ccccc2)C(=O)C1 [Edaravone, 3-Methyl-1-phenyl-2-pyrazolin-5-one]
dissolution in water (in words) [5]: dissolves very slowly

Molecule: anhydrous 3-methyl-1-phenyl-2-pyrazolin-5-one napadisylate [Example 6]
relative humidity at which it is converted into polymorph D through absorption of water ([3]; conversion into polymorph D): > 75 % RH | degradation on storage ([4]; kept for 2 days at 40° C. and 75% RH): without showing significant degradation
